Test results as given in patent US10618914B2 (UNIVERSITY OF PITTSBURGH—OF THE COMMONWEALTH SYSTEM OF …, priority 2015, dated 2020).
Several values for one entry are separate records, joined by “and”; a condition that tells them apart may be missing. Equal values may be shown once. Read-outs that look alike come from different tables or passages of the source.

What was measured:
[1] = test system: Cal33 cells; experiment: Cal33 growth inhibition; type: cell-based; details: for GI50: Table 5, * average of 2 experiments
[2] = test system: STAT3; experiment: HCS STAT3 assay; type: cell-based
[3] = Table 2, read-out: Cal33 (IC50)
[4] = Table 2, read-out: STAT3 (IC50)
[5] = Homo sapiens, CAL-33, Table 1, read-out: Growth Inhibition Cal33 (mean IC50)
[6] = Homo sapiens, CAL-33, Table 2, read-out: Cal33 (IC50)
[7] = Table 1, read-out: STAT3 (mean IC50)
[8] = FIG. 3, read-out: STAT3 potency (IC50)

Structure (SMILES) | IC50 [1, 3] | IC50 [2, 4] | also measured
COc1ccc(C2=Nn3c(nnc3-c3cc(-c4ccccc4)nn3C)SC2C)cc1 (stereo not shown) [compound 10540] | 1.3 µM | 4.7 µM | –
COc1ccc(C2=Nn3c(nnc3-c3[nH]nc4c3CSC4)SC2C)cc1 (stereo not shown) [compound 10435] | 0.63 µM | 33.9 µM | –
COc1ccc(C2=Nn3c(nnc3-c3[nH]nc4c3CCC4)SC2C)cc1 (stereo not shown) [UPCDC10262] | – | 8.8 µM | IC50 [1, 5]: 0.18 µM; IC50 [1, 6]: 0.18 µM; IC50 [2, 7]: 8.78 µM
CC1Sc2nnc(-c3[nH]nc4c3CCC4)n2N=C1c1ccc(F)cc1 (racemic) [compound 10282] | 31.3 µM | 27.7 µM | –
CC1Sc2nnc(-c3[nH]nc4c3CCC4)n2N=C1c1ccc(F)c(F)c1 (stereo not shown) [compound 10510] | 50 µM | 47.1 µM | –
Clc1ccc(C2=Nn3c(nnc3-c3cc(-c4ccccc4)n[nH]3)SC2Cc2ccccc2)cc1Cl (stereo not shown) [compound 10309] | – | 22.6 µM | –
Clc1ccc(C2=Nn3c(nnc3-c3[nH]nc4c3CCC4)SC2)cc1 [UPCDC87346005] | – | – | IC50 [1, 5]: 0.77 µM
CC1Sc2nnc(-c3cc(-c4ccccc4)n[nH]3)n2N=C1c1ccccc1 (stereo not shown) [compound 10131] | 26.3 µM | 3 µM | –
c1ccc2c(C3=Nn4c(nnc4-c4[nH]nc5c4CCC5)SC3)c[nH]c2c1 [UPCDC10115] | – | – | IC50 [1, 5]: 0.21 µM; IC50 [2, 7]: 38 µM
COc1ccc(C2=Nn3c(nnc3-c3cc(-c4ccccc4)n[nH]3)SC2CC(=O)N(C)C)cc1 (stereo not shown) [compound 10425] | 29.3 µM | 9.9 µM | IC50 [2, 8]: < 10 µM
COc1ccc(C2=Nn3c(nnc3-c3ccccc3)SC2C)cc1 (stereo not shown) [UPCDC10352] | – | 27.6 µM | IC50 [1, 5]: 0.21 µM; IC50 [1, 6]: 0.21 µM; IC50 [2, 7]: 27.6 µM
COc1ccc(C2=Nn3c(nnc3-c3cc(-c4ccccc4)n[nH]3)SC2C(C)C)cc1 (stereo not shown) [compound 10319] | 20 µM | 21.6 µM | –
COc1ccc(C2=Nn3c(nnc3-c3[nH]nc4c3CCC4)SC2Cc2ccccc2)cc1 (stereo not shown) [compound 10320] | 0.83 µM | 19.5 µM | –
Clc1ccc(C2=Nn3c(nnc3-c3[nH]nc4c3CCCC4)SC2)cc1 [UPCDC10084] | – | – | IC50 [1, 5]: 0.6 µM; IC50 [2, 7]: 21.3 µM
CC(C)C1Sc2nnc(-c3[nH]nc4c3CCC4)n2N=C1c1ccc(Cl)c(Cl)c1 (racemic) [compound 10299] | 8.2 µM | 4.4 µM | IC50 [2, 8]: < 10 µM
COC(=O)Cn1nc(-c2nnc3n2N=C(c2ccc(OC)cc2)C(C)S3)c2c1CCC2 (stereo not shown) [compound 10437] | 2.8 µM | 25.3 µM | –

Structure (SMILES) | IC50 [1, 3] | IC50 [2, 4] | also measured
COc1ccc(C2=Nn3c(nnc3-c3[nH]nc4c3CCC4)SC2CC(C)C)cc1 (stereo not shown) [UPCDC10305] | – | 5.1 µM | IC50 [1, 5]: 0.47 µM; IC50 [1, 6]: 0.47 µM; IC50 [2, 8]: < 10 µM; IC50 [2, 7]: 5.14 µM
COc1ccc(C2=Nn3c(nnc3-c3n[nH]c(-c4ccc(Cl)cc4)c3C)SC2C)cc1 (stereo not shown) [compound 10547] | 1.3 µM | 7.3 µM | –
CC1Sc2nnc(-c3cc(-c4ccc(Cl)cc4)n[nH]3)n2N=C1c1ccc(Cl)c(Cl)c1 (stereo not shown) [compound 10537] | 7.6 µM | 16 µM | –
CC(=O)n1nc(-c2nnc3n2N=C(c2ccc(Cl)c(Cl)c2)C(C)S3)c2c1CCC2 (stereo not shown) [compound 10458] | 4.5 µM | 22.7 µM | –
CC1Sc2nnc(-c3cc(-c4ccccc4)n[nH]3)n2N=C1c1ccccc1 (stereo not shown) [compound 10260] | 42.7 µM | 4.8 µM | –
COc1ccc(C2=Nn3c(nnc3-c3cc(-c4ccccc4)n[nH]3)SC2CCN)cc1 (stereo not shown) [compound 10371] | 24.1 µM | – | –
CC1Sc2nnc(-c3nn(Cc4ccccc4)c4c3CCC4)n2N=C1c1ccc(Cl)c(Cl)c1 (stereo not shown) [compound 10491] | 17.4 µM | 5.9 µM | –
COc1ccc(C2=Nn3c(nnc3-c3cc(-c4ccccc4)n[nH]3)SC2CC(C)C)cc1 (stereo not shown) [compound 10307] | 11.5 µM | – | –
COc1cccc(C2=Nn3c(nnc3-c3[nH]nc4c3CCC4)SC2C)c1 (stereo not shown) [compound 10471] | 3.9 µM | 40.1 µM | –
COc1ccc(C2=Nn3c(nnc3-c3[nH]nc4c3CCC4)SC2C(C)C)cc1 (stereo not shown) [UPCDC10318] | – | – | IC50 [1, 5]: 0.4 µM; IC50 [1, 6]: 0.4 µM
COc1cccc(C2=Nn3c(nnc3-c3cc(-c4ccc(Cl)cc4)n[nH]3)SC2C)c1 (stereo not shown) [compound 10535] | 6.3 µM | 7 µM | –
COc1ccc(C2=Nn3c(nnc3-c3cc(-c4ccc(Cl)cc4)n[nH]3)SC2C)cc1 (stereo not shown) [Cmpd 24] | – | – | GI50 [1]: 2.2 ± 0.3 µM
COCCC1Sc2nnc(-c3cc(-c4ccccc4)n[nH]3)n2N=C1c1ccc(OC)cc1 (stereo not shown) [Cmpd 31] | – | – | GI50 [1]: 0.04 µM
COc1ccc(C2=Nn3c(nnc3-c3cc(-c4ccccc4)n[nH]3)SC2CCN)cc1 (stereo not shown) [Cmpd 30] | – | – | GI50 [1]: 2.5 µM
CC1Sc2nnc(-c3[nH]nc4c3CCC4)n2N=C1c1ccc(Cl)c(Cl)c1 (stereo not shown) [compound 10263, 6-(3,4-Dichlorophenyl)-7-methyl-3-(2,4,5,6-tetrahydrocyclopenta[c]pyrazol-3-yl)-7H-[1,2,4]triazolo[3,4-b][1,3,4]thiadiazine] | – | 8.5 µM and 11 µM | –
COc1ccc(C2=Nn3c(nnc3-c3cc(-c4ccccc4)n[nH]3)SC2Cc2ccccc2)cc1 (stereo not shown) [compound 10321] | – | 5.8 µM | –
